Assay [1] deals with SP-induced biting response (pain response). Kind of assay: Substance P-induced biting response after intrathecal administration to mice. Format: in vivo. The note with it: 0.66, 2.0 and 6.6 μg/mouse intrathecal with SP 10 μg, male ICR mice, counted for one minute, FIG. 3.
Protocol: In order to examine effects of 5-aminolevulic acid (ALA) on pain, ALA was mixed with substance P (SP) and the mixture was intrathecally administered. Male ICR mice of 5 weeks age for intrathecal administration received incision on the dorsal tail and habituated at least for an hour. Thereafter, SP (10 μg) alone or a mixture of SP (10 μg) and ALA was intrathecally administered to the mice (5 μL/mouse) between the L5 and L6 level of the spinal cord, under no anesthesia. Immediately after administration, the number of times that the mice bit the underbody mutually was counted for one minute and the number was made an indicator of false pain response by SP.
Assay [2] deals with T1, GPR17 (Homo sapiens, UniProt Q13304). Kind of assay: Suppression of forskolin-increased intracellular cAMP level in GPR17-expressed CHO cells. Format: cell-based. Also on record: expressed in transfected cells. The note with it: forskolin 2 μM, 30 minutes, ALA in various concentrations, FIG. 2.
T1 sequence (Q13304 29-367): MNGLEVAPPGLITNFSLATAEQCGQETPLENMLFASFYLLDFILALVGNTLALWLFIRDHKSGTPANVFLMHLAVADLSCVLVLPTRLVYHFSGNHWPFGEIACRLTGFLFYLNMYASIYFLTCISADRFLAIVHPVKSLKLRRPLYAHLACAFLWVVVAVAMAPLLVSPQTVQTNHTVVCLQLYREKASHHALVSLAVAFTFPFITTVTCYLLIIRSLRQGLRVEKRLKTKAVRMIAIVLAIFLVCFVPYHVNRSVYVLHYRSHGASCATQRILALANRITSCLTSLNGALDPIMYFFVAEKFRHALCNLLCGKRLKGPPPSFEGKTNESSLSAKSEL
Protocol: The GPR17-expressed CHO cells was incubated overnight and then washed with an assay medium (HBBBS supplemented with 0.1% bovine serum albumin and 0.2 mM IBMX, followed by incubation at 37° C. for 30 minutes under 5% CO2 conditions. ALA diluted with the assay medium in various concentrations and forskolin were added thereto in 2 μM, followed by incubation at 37° C. for 30 minutes under 5% CO2 conditions. The culture supernatant was discarded and the intracellular cAMP level was determined on a plate reader (EnVision, PerkinElmer), following the protocol of cAMP Screen Kit (Applied Biosystems).
In assay [3] the target is T1, GPR17. Briefly: SRE-luciferase reporter assay in GPR17-expressed HeLa cells. Background: Reporter assays use an easily measured gene product as a stand-in for the process of interest.
The target of another assay is T2, GPR40 (Homo sapiens, UniProt O14842).
T2 construct: expressed in transfected cells; host or cells: GPR40 expression cells
T2 sequence (O14842 whole entry, species assumed): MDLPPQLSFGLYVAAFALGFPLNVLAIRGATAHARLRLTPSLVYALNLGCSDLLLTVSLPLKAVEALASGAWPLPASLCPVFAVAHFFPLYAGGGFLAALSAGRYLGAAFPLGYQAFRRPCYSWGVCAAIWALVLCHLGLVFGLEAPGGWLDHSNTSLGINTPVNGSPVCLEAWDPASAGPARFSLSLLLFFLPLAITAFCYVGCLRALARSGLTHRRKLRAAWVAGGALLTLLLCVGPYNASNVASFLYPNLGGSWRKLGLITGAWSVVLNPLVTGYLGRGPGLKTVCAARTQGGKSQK
Briefly: SRE-luciferase reporter assay in GPR40 expression cells used for control. Format: cell-based. To be noted: PBG 1000 μM.

Each structure is given as a SMILES string.

For `NCC(=O)CCC(=O)O` [ALA, 5-aminolevulinic acid], the “effect on SP-induced biting response (pain response)” value in assay [1] is recorded as “significant suppression effect”. Also, the “intracellular cAMP level increased by forskolin addition” value at GPR17 [2] was “dose-dependent and specific decrease”. On GPR17 [3] (ALA 200 μM), the “luciferase activity in the GPR17-expressed cells (in words)” value is listed as “increased luciferase activity”. The “Increased Luciferase Activity (cps) by ALA in GPR17-Expressed Cells” value at GPR17 [3] (ALA 200 μM, HeLa cells, 4 hours incubation) stood at 6707 cps.

Regarding `NCc1[nH]cc(CCC(=O)O)c1CC(=O)O` [PBG, porphobilinogen], the “luciferase activity (cps), GPR40 (control)” value at GPR40 is on record as 3769 cps. Also, at GPR17 [3] (PBG 1000 μM), the “Increased luciferase activity (cps) in the GPR17 expression cells by PBG” value was determined as 37999 cps and the “luciferase activity in the GPR17 expression cells (in words)” value is reported as “increased luciferase activity”.
